Reference: paper PMC11720699, “Developing Allosteric Chaperones for GBA1-Associated Disorders—An Integrated Computational and Experimental Approach” (International Journal of Molecular Sciences, 2024)

Assay: NeuroPK: plasma and brain levels after i.v. administration
Assay type: in vivo, male C57BL/6 mice
Settings: mouse, i.v. 10 mg/kg
Experimental: Finally, we investigated whether compound 3 can cross the BBB and enter the central nervous system following intravenous (i.v.) administration. This is a preliminary step in developing the compound as a disease-modifying therapy for neuropathic GD and other neurological disorders linked to GBA mutations, such as PD and other synucleinopathies. Pharmacokinetics and brain penetrability were assessed by measuring the levels of compound 3 in brain tissue and plasma after intravenous administration (10 mg/kg) in wild-type mice.
The brain penetration of compound 3 following intravenous injection was evaluated as follows. Nine male C57BL/6 mice received an intravenous dose of 10 mg/kg of the compound in a solution formulation consisting of 5% v/v NMP (N-methyl-2-pyrrolidone), 10% v/v Solutol® HS-15, 30% v/v PEG-400, and […]. Blood samples (approximately 60 µL) were collected under light isoflurane anesthesia from three mice at each of the following time points: 0.25, 2, and 8 h. Plasma was obtained by centrifuging the blood and stored at −70 ± 10 °C until analysis. Brain samples were also collected from each mouse at the respective time points. Tissue samples were homogenized using ice-cold phosphate-buffered saline (pH 7.4), and the homogenates were stored below −70 °C until analysis. The total homogenate volume was three times the brain weight.
The concentration-time data from plasma and brain samples were used for pharmacokinetic analysis. Both plasma and brain samples were quantified using a fit-for-purpose LC-MS/MS method, with a lower limit of quantification (LLOQ) of 1.00 ng/mL for plasma and 2.00 ng/mL for the brain. The LC conditions were as follows: Thermo Scientific™ Accucore™ C18 column (2.7 µm, 50 mm × 2.1 mm), run time of 1.6 min, injection volume of 1 µL, and flow rate of 0.8 mL/min. The mobile phase consisted of 0.1% formic acid in acetonitrile (A) and 10 mM ammonium formate (B), with the following gradient: 0.00 min/95% B, 0.30 min/95% B, 0.50 min/5% B, 1.20 min/5% B, 1.40 min/95% B, and 1.60 min/95% B.

In the case of `CN(C(=O)c1cc(N)cc(Nc2cccc3c2OCO3)n1)c1ccccc1` [Compound 3], the Kp at […] (male, C57BL/6, brain/plasma, iv, 0.25 h) is reported as 4.37, the Kp at 2 h (male, C57BL/6, brain/plasma, iv, 2 h) is reported as 3.29 and the Kp at 8 h (male, C57BL/6, brain/plasma, iv, 8 h) is reported as 1.16. For the same molecule, the concentration at […] (male, C57BL/6, plasma, iv, 0.25 h) was 1970 ng/mL, the concentration at 2 h (male, C57BL/6, plasma, iv, 2 h) was 65.1 ng/mL and the concentration at 8 h (male, C57BL/6, plasma, iv, 8 h) was 11.4 ng/mL. The “Brain Concentration” value (2 h) was 221.14 n/g and the “Brain Concentration” value (8 h) was 13.64 n/g.
